The record followed here is patent US20220389379A1, “PRIMARY BREAST EPITHELIAL CELL CULTURE MEDIUM, CULTURE METHOD AND USE THEREOF” (PRECEDO PHARMACEUTICALS CO., LTD, priority 2019, published 2022).

In one experiment the test system is breast tumor cells (HMFL-XN29). As to the kind of experiment: Drug sensitivity functional test, Cell Titer-Glo cell viability. The class given is cell-based, human. To be noted: HMFL-XN29, triple-negative patient; 72 hours after administration. Here is the method: (§1) 1. Plating of primary breast tumor cells: the single cell suspension of breast tumor cells (HMFL-XN5, HMFL-XN7, HMFL-XN10, HMFL-XN12, and HMFL-XN29) obtained by the same method of the invention according to step (3) of Example 4, was inoculated at a density of 3000-5000 cells/well in a 384-well plate, and the cells were adhered overnight.
(1) The drug storage plates were prepared by gradient dilution method: 10 μL of the drug stock solutions to be tested (the concentration of the drug stock solution was determined based on 2 times of the maximum blood concentration Cmax of the drug in the human body) were respectively taken, and added to 0.5 mL EP tubes containing 20 μL of DMSO; 10 μL of solutions from the above EP tubes were pipetted into second 0.5 mL EP tubes loaded with 20 μL of DMSO, that is, diluting the drugs in a ratio of 1:3. […]
(§2) (3) Test of cell viability: 72 hours after administration, Cell Titer-Glo assay kit (manufactured by Promega) was used to detect the chemiluminescence value of the cultured cells after drug administration. […] The prepared Cell Titer-Glo detection solution was added to each well, and a microplate reader was used to detect the chemiluminescence value after mixing.
(§3) Graphs were made by using Graphpad Prism 7.0 software and the half-inhibition rate IC50 was calculated.
Consider `CS(=O)(=O)CCNCc1ccc(-c2ccc3ncnc(Nc4ccc(OCc5cccc(F)c5)c(Cl)c4)c3c2)o1` [lapatinib], for which the “drug sensitivity compared with breast tumor cells from other patients” value is listed as “less sensitive”. As to `CC/C(=C(\c1ccccc1)c1ccc(OCCN(C)C)cc1)c1ccccc1` [tamoxifen], the “drug sensitivity compared with breast tumor cells from other patients” value is “less sensitive”.

Another experiment deals with primary breast tumor epithelial cells isolated from breast cancer tissues (HMFL-XN1, HMFL-XN3, HMFL-XN4, HMFL-XN6, HMFL-XN8). As to the kind of experiment: Optimization of primary breast epithelial cell culture medium: cell count after culture with medium additives. In kind it is cell-based, human. On the set-up: key: +: compared with the basis medium, the medium added with the additive(s) can promote the proliferation of primary breast tumor epithelial cells isolated from at least three cases of breast cancer tissues; −: the medium added with the additive(s) has the effect of inhibiting proliferation of primary breast tumor epithelial cells isolated from at least two cases of breast cancer tissues; ○: the medium added with this additive(s) has no significant effect on the proliferation of primary breast tumor epithelial cells isolated from at least three cases of breast cancer tissues.
Details: not given
Here is the method: Matrigel (registered trademark) (manufactured by BD Biosciences) was diluted at 1:100 in serum-free DMEM/F12 medium to prepare an extracellular matrix dilution, which was added to a 48-well culture plate with 200 μl/well to completely cover the bottom of the wells of the culture plate. The resultant was let stand for 1 hour in a 37° C. incubator. After 1 hour, the extracellular matrix dilution was removed to provide a Matrigel-coated plate.
First, a basis medium was prepared. To a commercial DMEM/F-12 medium, GlutaMAX-I (manufactured by Thermo Fisher SCIENTIFIC) was added at the specified concentration (1:100 dilution), human insulin (manufactured by Sigma) was added at a final concentration of 10 μg/ml, ROCK kinase inhibitor Y27632 (manufactured by Sigma) was added at a final concentration of 10 μM, and penicillin-streptomycin (manufactured by Thermo Fisher SCIENTIFIC) was added at a 1:100 dilution ratio, which provides the basis medium.
Next, different types of additives (as shown in Table 1) were added to the basis medium to prepare breast epithelial cell culture mediums containing different supplementary components, and the mediums with different components were added at a volume of 500 μl/well to 48-well plates which were coated with extracellular matrix gel (Matrigel). Breast tumor cells (HMFL-XN1) isolated from breast cancer tissue in step (1) of this Example were inoculated in a Matrigel-coated 48-well culture plate at a cell density of 1×10^4 cells/well, and equal numbers of freshly isolated breast tumor cells (HMFL-XN1) were cultured under different medium formulations at 37° C., under 5% CO2 concentration and 20% oxygen concentration. The medium was renewed every 4 days after the start of the culture. After 10 days of culture, cell counts were performed. As an experiment control, the basis medium without any additives was used. Breast tumor cells isolated from the remaining four breast cancer tissue samples were cultured and counted in the same manner as above.
In the case of Cholera toxin, the Degree of cell entry is recorded as “○”.

The experiment is the same for the next values; noted with them: additive at the concentration given in Table 1 added to basis medium; cell count after 10 days of culture, compared with basis medium; five breast cancer samples.
As for `Cc1cccc(-c2nn(C(=S)Nc3ccccc3)cc2-c2ccnc3ccccc23)n1` [A8301, reference compound], the Degree of cell entry is on record as “+”. `Cc1ccc2c(c1)C(=O)C1(O)CCN(c3ccccc3)C1=N2` (centres unmarked) [Blebbistatin, reference compound]: the Degree of cell result was “−”. For `CC(=O)N[C@@H](CS)C(=O)O` [N-Acetyl Cysteine, reference compound], the Degree of cell entry was “−”.

On to `NC(=O)c1cccnc1` [Nicotinamide, reference compound], for which the Degree of cell result is listed as “−”. For `CCCCC[C@H](O)/C=C/[C@H]1[C@H](O)CC(=O)[C@@H]1C/C=C\CCCC(=O)O` [Prostaglandin E2, reference compound], the Degree of cell result is on record as “−”.

Take `Oc1ccc(-c2nc(-c3ccncc3)c(-c3ccc(F)cc3)[nH]2)cc1` [SB202190, reference compound]: the Degree of cell entry is recorded as “+”. As to `N[C@@H](Cc1cc(I)c(Oc2ccc(O)c(I)c2)c(I)c1)C(=O)O` [Triiodothyronine, reference compound], the Degree of cell result was “○”.

For the molecule “Basic fibroblast growth factor: medium additive (R&D)”, the Degree of cell entry is reported as “+”.

“Epidermal growth factor: epidermal growth factor (EGF), medium additive (NSDSECPLSHDGYCLHDGVCMYIEALDKYACNCVVGYIGERCQYRDLKWWELR; UniProt P01133 971-1023, looked up)”: the Degree of cell entry is “+”.

In the case of “Hepatocyte growth factor: medium additive (Peprotech)”, the Degree of cell result is given as “+”. Consider “Human leukemia inhibitory factor: medium additive (Peprotech)”, for which the Degree of cell entry is listed as “−”.

With “Insulin growth factor1: medium additive (Peprotech)”, the Degree of cell entry is recorded as “+”. Take Interleukin 6: medium additive (R&D): the Degree of cell result is reported as “−”. The same measure, in the same setting: for Neuregulin 1 the value was “+”.

Another experiment relates to breast tumor cells (HMFL-XN7). As to the kind of experiment: Drug sensitivity functional test, Cell Titer-Glo cell viability. In kind it is cell-based. To be noted: Homo sapiens; HMFL-XN7, hormone receptor-positive, HER2 receptor-negative patient; 72 hours after administration; read-out: half-inhibition rate IC50. How it is done:
as §1
(§4) (1) The drug storage plates were prepared by gradient dilution method: 10 μL of the drug stock solutions to be tested (the concentration of the drug stock solution was determined based on 2 times of the maximum blood concentration Cmax of the drug in the human body) were respectively taken, and added to 0.5 mL EP tubes containing 20 μL of DMSO; 10 μL of solutions from the above EP tubes were pipetted into second 0.5 mL EP tubes loaded with 20 μL of DMSO, that is, diluting the drugs in a ratio of 1:3. The above method was repeated for gradually dilution and 7 concentrations required for dosing were obtained. Different concentrations of drugs were added to the 384-well drug storage plates. Equal volume of DMSO was added to each well of the solvent control group as a control. In this example, the drugs to be tested were epirubicin (manufactured by MCE), lapatinib (manufactured by MCE), docetaxel (manufactured by MCE), and tamoxifen (manufactured by MCE).
(§5) (2) Using a high-throughput automated workstation (purchased from Perkin Elmer), different concentrations of drugs and solvent controls in the 384-well drug storage plates were added to 384-well cell culture plates plated with the breast tumor cells. […]
as §2, §3
Take `CS(=O)(=O)CCNCc1ccc(-c2ccc3ncnc(Nc4ccc(OCc5cccc(F)c5)c(Cl)c4)c3c2)o1` [lapatinib]: the IC50 was 2500 nM.

For `CC/C(=C(\c1ccccc1)c1ccc(OCCN(C)C)cc1)c1ccccc1` [tamoxifen], the half-inhibitory concentration (IC50) was found to be 980 nM.

The next experiment concerns breast tumor cells (HMFL-XN12). The experiment is described as above. In kind it is cell-based. To be noted: Homo sapiens; HMFL-XN12, HER2-positive patient; 72 hours after administration; read-out: half-inhibitory amount (IC50). How it is done:
as §1, §4, §5, §2, §3
Take `CS(=O)(=O)CCNCc1ccc(-c2ccc3ncnc(Nc4ccc(OCc5cccc(F)c5)c(Cl)c4)c3c2)o1` [lapatinib]: the half-inhibitory concentration (IC50) worked out at 920 nM.
